# Reference: patent US9232796B2, “Herbicidal compositions comprising 4-amino-3-chloro-5-fluoro-6-(4-chloro-2-fluoro-3-methoxyphenyl) pyridine-2-carboxylic acid or a derivative thereof and acetyl-CoA carboxylase (ACCase) inhibitors” (DOW AGROSCIENCES LLC, priority 2012, dated 2016)
# What was measured:
# [1] = tested on: FIMMI; experiment: Example II in-water applied, greenhouse, transplanted paddy rice weeds; assay type: in vivo, Fimbristylis miliacea (L.) Vahl
# Description: Weed seeds or nutlets of the desired test plant species were planted in puddled soil (mud) prepared by mixing a shredded, non-sterilized mineral soil (50.5 percent silt, 25.5 percent clay, and 24 percent sand, with a pH of about 7.6 and an organic matter content of about 2.9 percent) and water at a 1:1 volumetric ratio. The prepared mud was dispensed in 365 mL aliquots into 16-ounce (oz.) non-perforated plastic pots with a surface area of 86.59 square centimeters (cm^2) leaving a headspace of 3 centimeters (cm) in each pot. Mud was allowed to dry overnight prior to planting or transplanting. Rice seeds were planted in Sun Gro MetroMix® 306 planting mixture, which typically has a pH of 6.0 to 6.8 and an organic matter content of about 30 percent, in plastic plug trays. Seedlings at the second or third leaf stage of growth were transplanted into 860 mL of mud contained in 32-oz. non-perforated plastic pots with a surface area of 86.59 cm^2 4 days prior to herbicide application. The paddy was created by filling the headspace of the pots with 2.5 to 3 cm of water. […] The plants were grown for 4-22 days in a greenhouse with an approximate 14 hr. photoperiod which was maintained at about 29° C. during the day and 26° C. during the night. Nutrients were added as Osmocote® (19:6:12, N:P:K+minor nutrients) at 2 g per 16-oz. pot and 4 g per 32-oz. pot. Water was added on a regular basis to maintain the paddy flood, and supplemental lighting was provided with overhead metal halide 1000-Watt lamps as necessary. The plants were employed for testing when they reached the first through fourth true leaf stage.
# Treatments consisted of the acid or esters of 4-amino-3-chloro-5-fluoro-6-(4-chloro-2-fluoro-3-methoxy-phenyl)pyridine-2-carboxylic acid (compound A) each formulated as an SC (suspension concentrate) and various herbicidal components alone and in combination.
# For formulated compounds, a measured amount was placed in an individual 100 or 200 mL glass vial and was dissolved in a volume of 1.25% (v/v) Agri-Dex® crop oil concentrate to obtain application solutions.
# Applications were made by injecting with a pipetter appropriate amounts of the application solutions, individually and sequentially, into the aqueous layer of the paddy. Control plants were treated in the same manner with the solvent blank. Applications were made so that all treated plant material received the same concentrations of acetone and crop oil concentrate.
# (§1) The treated plants and control plants were placed in a greenhouse as described above and water was added as needed to maintain a paddy flood. After approximately 3 weeks the condition of the test plants as compared with that of the untreated plants was determined visually and scored on a scale of 0 to 100 percent where 0 corresponds to no injury or growth inhibition and 100 corresponds to complete kill.
# (§2) Colby's equation was used to determine the herbicidal effects expected from the mixtures (Colby, S. R. 1967. Calculation of the synergistic and antagonistic response of herbicide combinations. Weeds 15:20-22.).
# The following equation was used to calculate the expected activity of mixtures containing two active ingredients, A and B: Expected=A+B−(A×B/100)
# [2] = tested on: CYPES; experiment: Example V (second) postemergence foliar-applied ternary mixtures, greenhouse, direct seeded rice weeds; assay type: in vivo, Cyperus esculentus L.
# Description: (§3) The treated plants and control plants were placed in a greenhouse as described above and watered by sub-irrigation to prevent wash-off of the test compounds. After approximately 3 weeks, the condition of the test plants as compared with that of the untreated plants was determined visually and scored on a scale of 0 to 100 percent where 0 corresponds to no injury or growth inhibition and 100 corresponds to complete kill.
# as §2
# (§4) The following equation was used to calculate the expected activity of mixtures containing three active ingredients, A, B, and C: Expected=A+B+C−((A×B+A×C+B×C)/100)+(A×B×C/10000)
# [3] = tested on: ECHSS; experiment: Example V post-emergence field trials in direct-seeded rice; assay type: in vivo, multiple Echinochloa species; conditions: foliar, field trial Italy
# Description: Multiple field trials were conducted under commercial grower field conditions in Tolima, Colombia; Thessaloniki, Greece; Bianze and Copiano, Italy; and Humphrey, Ark., USA. Trials sites were located in commercially grown fields of direct-seeded rice (Oryza sativa) using standard herbicide small plot research methodology. Plots varied from 2 to 3 meter (m)×5 to 8 m (width×length) with 4 replicates per treatment. The rice crop was grown using normal cultural practices for fertilization, seeding, watering, flooding and maintenance to ensure good growth of the crop and the weeds.
# All treatments in the field trials were applied using a backpack compressed air/gas sprayer with flat fan nozzles (80° or 110°) calibrated to apply 187 to 300 L/ha spray volume at approximately 200-400 kPa nozzle pressure. Commercially available products of cyhalofop-butyl (Clincher 180EC, Clincher 200EC, and Clincher SF (285 gr ai/L EC)) were mixed in water at appropriate formulated product rates to achieve the desired rates based on a unit area of application (hectare) to achieve the desired rates as shown. Treatments were rate at 19 to 58 days after application (DAA) as compared to the untreated control plants. Visual weed control was scored on a scale of 0 to 100 percent where 0 corresponds to no injury and 100 corresponds to complete kill. […]
# [4] = tested on: LEFCH; experiment: Example V (second) postemergence foliar-applied ternary mixtures, greenhouse, direct seeded rice weeds; assay type: in vivo, Leptochloa chinensis (L.) Nees
# Description: as §3, §2, §4
# [5] = tested on: SCPMA; experiment: Example VI in-water applied ternary mixtures, greenhouse, transplanted paddy rice weeds; assay type: in vivo, Schoenoplectus maritimus (L.) Lye
# Description: Applications were made by injecting with a pipetter appropriate amounts of the application solutions, into the aqueous layer of the paddy. Control plants were treated in the same manner with the solvent blank. Applications were made so that all treated plant material received the same concentrations of acetone and crop oil concentrate.
# as §1, §2
# The following equation was used to calculate the expected activity of mixtures containing three active ingredients, A. B, and C: Expected=A+B+C−((A×B+A×C+B×C)/100)+(A×B×C/10000)
smiles,measurement,setting,value
"C[C@@H](Oc1ccc(Oc2nc3ccc(Cl)cc3o2)cc1)C(=O)N(C)c1ccccc1F [Metamifop, (2R)-2-[4-[(6-chloro-2-benzoxazolyl)oxy]phenoxy]-N-(2-fluorophenyl)-N-methylpropanamide]",Visual Weed Control (%) - 21 DAA FIMMI Obs,[1]; 75 gai/ha,0%
same,Visual Weed Control (%) - 21 DAA FIMMI Obs,[1]; 150 gai/ha,0%
"CCCCOC(=O)[C@@H](C)Oc1ccc(Oc2ccc(C#N)cc2F)cc1 [Cyhalofop-butyl, butyl(2R)-2-[4-(4-cyano-2-fluorophenoxy)phenoxy]propanoate, reference compound]",Visual Weed Control (%) - 21 DAA CYPES Obs,[2]; 35 gai/ha,0%
same,Visual Weed Control (%) - 55-58 DAA ECHSS Obs,[3]; 300 gai/ha,37%
same,Visual Weed Control (%) - 21 DAA LEFCH Obs,[4]; 35 gai/ha,68%
same,Visual Weed Control (%) - 22 DAA LEFCH Obs,[4]; 35 gai/ha,70%
same,Visual Weed Control (%) - 24 DAA SCPMA Obs,[5]; 180 gai/ha,0%
"COc1c(Cl)ccc(-c2nc(C(=O)O)c(Cl)c(N)c2F)c1F [Compound A Acid, 4-amino-3-chloro-6-(4-chloro-2-fluoro-3-methoxyphenyl)-5-fluoropyridine-2-carboxylic acid]",Visual Weed Control (%) - 21 DAA FIMMI Obs,[1]; 8.75 gae/ha,20%
same,Visual Weed Control (%) - 21 DAA FIMMI Obs,[1]; 35 gae/ha,85%
"COc1c(Cl)ccc(-c2nc(C(=O)OCc3ccccc3)c(Cl)c(N)c2F)c1F [Compound A Benzyl Ester, benzyl ester of 4-amino-3-chloro-5-fluoro-6-(4-chloro-2-fluoro-3-methoxy-phenyl)pyridine-2-carboxylic acid]",Visual Weed Control (%) - 21 DAA CYPES Obs,[2]; 8 ae/ha,70%
same,Visual Weed Control (%) - 21 DAA CYPES Obs,[2]; 8 gae/ha,70%
same,Visual Weed Control (%) - 55-58 DAA ECHSS Obs,[3]; 24 gae/ha,40%
same,Visual Weed Control (%) - 22 DAA LEFCH Obs,[4]; 8 gae/ha,28%
same,Visual Weed Control (%) - 21 DAA LEFCH Obs,[4]; 16 gae/ha,25%
same,Visual Weed Control (%) - 24 DAA SCPMA Obs,[5]; 4 gae/ha,0%
same,Visual Weed Control (%) - 24 DAA SCPMA Obs,[5]; 8 gae/ha,0%
same,Visual Weed Control (%) - 24 DAA SCPMA Obs,[5]; 16 gae/ha,0%
